Reference: article PMC12198282, “Application of a high-density microelectrode array assay using a 3D human iPSC-derived brain microphysiological system model for in vitro neurotoxicity screening of environmental compounds” (Archives of Toxicology, 2025)
Entries after “also recorded” stand apart in the source; their conditions may differ. Like-named read-outs stand apart in the source and are kept apart here.

Columns and labels:
[1] = system: human iPSC-derived 3D BrainSpheres; test: BrainSphere MEA assay (HD-MEA, 13-day exposure, concentration-response); format: cell-based; settings: for EC (benchmark response 1.349 SD) / AC50: Homo sapiens; for EC (benchmark response 1.349 SD): 312 h, tcplfit2 BMD at benchmark response (1.349*SD of baseline controls); for AC50: concentration at 50% maximal activity, Supplement 3 prints it also for curves with hit call 0
Summary of the method: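 Recordings used a 5× RMS spike threshold and 600 s network scans of fixed electrode regions, each region clustered as one BrainSphere. Spheres had 7 weeks of differentiation and 48 h attachment on coated HD-MEA chips before day 0 of the 13-day concentration-response exposure. At least three independent plates were run.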

2D rat cortical cultures [2] = settings: cited from earlier work; for AC50: rNFA mc5
2D rat cortical cultures [3] = settings: rNFA mc5 hit call; cytotoxicity LDH; cited from earlier work
Wherever hitc CCTE Shafer MEA dev active electrodes number is given: key: 1 (active); 0 (inactive).
Wherever hitc CCTE Shafer MEA dev burst duration mean is given: key: 1 (active); 0 (inactive).
Wherever hitc CCTE Shafer MEA dev burst rate is given: key: 1 (active); 0 (inactive).
Wherever hitc CCTE Shafer MEA dev bursting electrodes number is given: key: 1 (active); 0 (inactive).
Wherever hitc CCTE Shafer MEA dev correlation coefficient mean is given: key: 1 (active); 0 (inactive).
Wherever hitc CCTE Shafer MEA dev firing rate mean is given: key: 1 (active); 0 (inactive).
Wherever hitc CCTE Shafer MEA dev inter network spike interval mean is given: key: 1 (active); 0 (inactive).
Wherever hitc CCTE Shafer MEA dev interburst interval mean is given: key: 1 (active); 0 (inactive).
Wherever hitc CCTE Shafer MEA dev mutual information norm is given: key: 1 (active); 0 (inactive).
Wherever hitc CCTE Shafer MEA dev network spike duration std is given: key: 1 (active); 0 (inactive).
Wherever hitc CCTE Shafer MEA dev network spike number is given: key: 1 (active); 0 (inactive).
Wherever hitc CCTE Shafer MEA dev network spike peak is given: key: 1 (active); 0 (inactive).
Wherever hitc CCTE Shafer MEA dev per burst interspike interval is given: key: 1 (active); 0 (inactive).
Wherever hitc CCTE Shafer MEA dev per burst spike percent is given: key: 1 (active); 0 (inactive).
Wherever hitc CCTE Shafer MEA dev per network spike spike number mean is given: key: 1 (active); 0 (inactive).
Wherever hitc CCTE Shafer MEA dev per network spike spike percent is given: key: 1 (active); 0 (inactive).
Wherever hitc CCTE Shafer MEA dev spike duration mean is given: key: 1 (active); 0 (inactive).

In the case of `CCCC(CCC)C(=O)O` [Sodium valproate], the “Bioactivity across the 10 MEA endpoints of the BrainSphere MEA assay (in words)” value [1] is reported as “inactive across all metrics; also recorded: inactive in the BrainSphere MEA”, the EC (benchmark response 1.349 SD) ([1]; read-out: BMD Mean.Spheroid.Burst.ISI) is reported as 85 µM and the EC (benchmark response 1.349 SD) ([1]; read-out: BMD Mean.Spheroid.Nonburst.ISI) is reported as 213 µM. For the same molecule, the AC50 ([1]; read-out: ac50 Mean.Spheroid.Burst.Duration) was 45 µM, the AC50 ([1]; read-out: ac50 Mean.Spheroid.Burst.ISI) was 85 µM and the AC50 ([1]; read-out: ac50 Spheroid.Burst.Frequency) was 84 µM. For the same molecule, the “Number of active endpoints in the rNFA” value (2D rat cortical cultures [2]; of 17 MEA endpoints, ref Brown et al. [2016], Carstens et al. [2022], Frank et al. [2017b], Shafer et al. [2019], ToxCast invitrodb (v4.2)) was “two”, the AC50 (2D rat cortical cultures [2]; aenm per_network_spike_spike_number_mean, read-out: ac50 CCTE_Shafer_MEA_dev_per_network_spike_spike_number_mean) was 576 µM and the AC50 (2D rat cortical cultures [2]; aenm per_network_spike_spike_percent, read-out: ac50 CCTE_Shafer_MEA_dev_per_network_spike_spike_percent) was 488 µM. The “hitc CCTE_Shafer_MEA_dev_active_electrodes_number” value (2D rat cortical cultures [2]; rNFA mc5 hit call, aenm active_electrodes_number) was 0, the “hitc CCTE_Shafer_MEA_dev_burst_duration_mean” value (2D rat cortical cultures [2]; rNFA mc5 hit call, aenm burst_duration_mean) was 0 and the “hitc CCTE_Shafer_MEA_dev_burst_rate” value (2D rat cortical cultures [2]; rNFA mc5 hit call, aenm burst_rate) was 0. For the same molecule, the “hitc CCTE_Shafer_MEA_dev_bursting_electrodes_number” value (2D rat cortical cultures [2]; rNFA mc5 hit call, aenm bursting_electrodes_number) was 0, the “hitc CCTE_Shafer_MEA_dev_correlation_coefficient_mean” value (2D rat cortical cultures [2]; rNFA mc5 hit call, aenm correlation_coefficient_mean) was 0 and the “hitc CCTE_Shafer_MEA_dev_firing_rate_mean” value (2D rat cortical cultures [2]; rNFA mc5 hit call, aenm firing_rate_mean) was 0. The “hitc CCTE_Shafer_MEA_dev_inter_network_spike_interval_mean” value (2D rat cortical cultures [2]; rNFA mc5 hit call, aenm inter_network_spike_interval_mean) was 0, the “hitc CCTE_Shafer_MEA_dev_interburst_interval_mean” value (2D rat cortical cultures [2]; rNFA mc5 hit call, aenm interburst_interval_mean) was 0 and the “hitc CCTE_Shafer_MEA_dev_mutual_information_norm” value (2D rat cortical cultures [2]; rNFA mc5 hit call, aenm mutual_information_norm) was 0. The “hitc CCTE_Shafer_MEA_dev_network_spike_duration_std” value (2D rat cortical cultures [2]; rNFA mc5 hit call, aenm network_spike_duration_std) was 0, the “hitc CCTE_Shafer_MEA_dev_network_spike_number” value (2D rat cortical cultures [2]; rNFA mc5 hit call, aenm network_spike_number) was 0 and the “hitc CCTE_Shafer_MEA_dev_network_spike_peak” value (2D rat cortical cultures [2]; rNFA mc5 hit call, aenm network_spike_peak) was 0. The “hitc CCTE_Shafer_MEA_dev_per_burst_interspike_interval” value (2D rat cortical cultures [2]; rNFA mc5 hit call, aenm per_burst_interspike_interval) was 0, the “hitc CCTE_Shafer_MEA_dev_per_burst_spike_percent” value (2D rat cortical cultures [2]; rNFA mc5 hit call, aenm per_burst_spike_percent) was 0 and the “hitc CCTE_Shafer_MEA_dev_per_network_spike_spike_number_mean” value (2D rat cortical cultures [2]; rNFA mc5 hit call, aenm per_network_spike_spike_number_mean) was 1. For the same molecule, the “hitc CCTE_Shafer_MEA_dev_per_network_spike_spike_percent” value (2D rat cortical cultures [2]; rNFA mc5 hit call, aenm per_network_spike_spike_percent) was 1, the “hitc CCTE_Shafer_MEA_dev_spike_duration_mean” value (2D rat cortical cultures [2]; rNFA mc5 hit call, aenm spike_duration_mean) was 0 and the “Concentrations at which active in the rNFA” value (2D rat cortical cultures [2]; ref Brown et al. [2016], Carstens et al. [2022], Frank et al. [2017b], Shafer et al. [2019], ToxCast invitrodb (v4.2)) was “exceeding 450 µM”. The “hitc CCTE_Shafer_MEA_dev_LDH” value (2D rat cortical cultures [3]) was 0.
